According to BindingDB's records for patent US11478460 (Chemocentryx, 2022):

Target: T1, C5a anaphylatoxin chemotactic receptor 1 (Homo sapiens, UniProt P21730)
T1 sequence (P21730 whole entry): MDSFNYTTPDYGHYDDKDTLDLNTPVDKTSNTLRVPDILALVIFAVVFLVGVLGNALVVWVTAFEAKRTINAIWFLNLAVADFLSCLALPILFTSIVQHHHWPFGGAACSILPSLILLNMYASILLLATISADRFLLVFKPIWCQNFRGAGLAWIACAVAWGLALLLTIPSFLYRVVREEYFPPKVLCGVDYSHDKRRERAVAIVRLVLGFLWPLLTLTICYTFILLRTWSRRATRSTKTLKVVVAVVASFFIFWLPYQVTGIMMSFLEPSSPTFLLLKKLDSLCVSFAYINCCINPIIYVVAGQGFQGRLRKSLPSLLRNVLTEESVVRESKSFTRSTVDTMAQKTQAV
Assay: chemotaxis assay
Procedure: Optionally, compounds may be further assayed for their ability to inhibit chemotaxis in cells. Chemotaxis assays are performed using 5 μm pore polycarbonate, polyvinylpyrrolidone-coated filters in 96-well chemotaxis chambers (Neuroprobe; Gaithersburg, Md.) using chemotaxis buffer (Hank's balanced salt solution (HBSS) and 1% FBS). C5aR ligands (i.e., C5a, R&D Systems; Minneapolis, Minn.) are use to evaluate compound mediated inhibition of C5aR mediated migration. Other chemokines (i.e., SDF-1α; R&D Systems; Minneapolis, Minn.) are used as specificity controls. The lower chamber is loaded with 29 μl of chemokine (i.e., 0.03 nM C5a) and varying amounts of compound; the top chamber contains 100,000 U937 or neutrophil cells in 20 μl. The chambers are incubated 1.5 hours at 37° C., and the number of cells in the lower chamber quantified either by direct cell counts in five high powered fields per well or by the CyQuant assay (Molecular Probes), a fluorescent dye method that measures nucleic acid content and microscopic observation.

| SMILES | IC50 [nM] |
| --- | --- |
| Cc1cccc(OCC(C)C)c1-n1nc2c(c1-c1ccc(NC(N)=O)cc1)CN(c1cccc(C(C)(C)C)n1)CC2 [US11478460, Compound 1.394] | < 5 |
| Cc1cccc(OCC(C)C)c1-n1nc2c(c1-c1ccc(NC(N)=O)c(F)c1)CN(c1ncc(Cl)cc1F)CC2 [US11478460, Compound 1.250] | < 5 |
